Key:
[1] = tested on: inflammatory genes in activated MDM; test: RNA-seq gene expression in activated MDM; type: cell-based, human; conditions: LCC-12 10 μM; FIG. 4A-C
Protocol: Cell culture. Peripheral blood samples were collected from distinct healthy donors (Etablissement Français du Sang). Pan monocytes were isolated by negative magnetic sorting using microbeads according to the manufacturer's instructions (Miltenyi Biotec, 130-096-537), and cultured in RPMI 1640 supplemented with glutamine (Thermo Fisher Scientific, 61870010), 10% fetal bovine serum and exposed to granulocyte-macrophage colony-stimulating factor (GM-CSF, Miltenyi Biotec, 130-093-866, 100 ng/mL) to induce differentiation into macrophages (MDM). […]
RNA-seq. […] Sequencing was carried out on a NovaSeq 6000 instrument from Illumina based on a 2×100 cycle mode (paired-end reads, 100 bases). Raw sequencing reads were first checked for quality with Fastqc (0.11.8) and trimmed for adapter sequences with the trimGalore (0.6.2) software. Trimmed reads were then aligned on the human hg38 reference genome using the STAR mapper (2.6.1b), up to the generation of a raw count table per gene (GENCODE annotation v29). […] Raw data from (Fernandes et al., 2016, 7, e00027-16; Gongalves et al., 2020, Nat. Commun. 11, 2282) were downloaded from the NCBI Short Read Archive under records PRJNA528433 and PRJNA290995 and processed as described above. […] Differential expression was assessed with the limma voom framework (v 3.44.3) (Ritchie et al., 2015, Nucleic Acids Res. 43, e47). […]

monocytes = test: Activation of monocytes (CD25, CD80 flow cytometry); type: cell-based, human; conditions: LCC-12 10 μM, 24 h, LPS; FIG. 6D
Protocol: Monocytes. Peripheral blood samples were collected from healthy donors (Etablissement Français du Sang). Pan monocytes were isolated by negative magnetic sorting using microbeads according to the manufacturer's instructions (Miltenyi Biotec, 130-096-537), and cultured in RPMI 1640 supplemented with glutamine, 10% fetal bovine serum. Monocytes were treated with lipopolysaccharides (LPS, 100 ng/mL, 24 h) to generate activated monocytes and were co-treated with LCC-12 (in-house, 10 μM, 24 h). The activation status of the monocytes was assessed by measuring CD25 and CD80 surface markers by flow cytometry.

N=C(N)NC(=N)NCCCCCCCCCCCCNC(=N)NC(=N)N [LCC-12, lipophilic copper clamp C12]
expression of inflammatory genes compared to activated MDM [1]: reduced expression of a subset of inflammatory genes
activation of monocytes (monocytes): decreases the activation

From US20230416196A1, “DIMER OF BIGUANIDINES AND THEIR THERAPEUTIC USES” (INSTITUT CURIE, priority 2020, published 2023)
